Test results taken from patent US20260306640A1, “TECHNOLOGIES TARGETING CELL STATES” (Auron Therapeutics, Inc., priority 2023, published 2026).
Where two headings read alike, the source gives them in different places.

Columns and labels:
epithelial GSEA = experiment: Epithelial GSEA in LASCPC-01 cells; type: cell-based; conditions: LASCPC-01 cells as compared to DMSO; FIG. 3 (C)
Protocol: (§1) FIG. 3. Provided compounds can provide various activities. (A): Provided technologies can reduce KAT2A and KAT2B levels and histone acetylation levels. […] Cell viability (Cell Titer Glo) data relative to DMSO control after 7 days of treatment with compound 22 are presented as examples to confirm inhibition. GI50=5 nM. (C): Provided technologies can modulate cell states and induce differentiation. […] (D): Provided technologies can reduce KAT2A and KAT2B levels and histone acetylation levels including in neuroendocrine prostate cancer primary patient organoid. […] Concentrations are nM. […] Cell viability data relative to DMSO control after 21 days of treatment with compound 22 are presented as examples to confirm inhibition. GI50=3 nM. (F): Provided technologies can modulate cell states and induce differentiation.

CD86 in MOLM-13 cells = experiment: Flow cytometry for CD86 (monocytic differentiation) in MOLM-13; type: cell-based; conditions: FIG. 2
Protocol: In some assessments, flow cytometry was utilized to assess levels of cells expressing certain polypeptides. For example, for flow cytometry for CD86 in MOLM-13, MOLM13 cells were stained with Live/Dead solution (Fixable Live/Dead NIR 1:100 in PBS) at RT, in the dark, for 20 min and then washed once with cell staining solution. The cells were then blocked with Human Fc Blocker solution at RT for 8 mins. Then they were labeled with CD86-APC R700 (565149, BD) (2.5 uL/test) on ice for 30 min in the dark. Following incubation, cells were washed once with cell staining solution. Flow cytometric acquisition was done on BD Celesta flow cytometer (BD Biosciences) and analyses were performed using Flow-Jo software.

KAT2A [1] = biological target: T1, KAT2A (Homo sapiens, UniProt Q92830); experiment: Western blot of KAT2A level in NCI-H1048 cells, 24 h; type: cell-based; set-up: degrader, Western blot; conditions: various concentrations, FIG. 1 (B)
T1 sequence (Q92830 whole entry): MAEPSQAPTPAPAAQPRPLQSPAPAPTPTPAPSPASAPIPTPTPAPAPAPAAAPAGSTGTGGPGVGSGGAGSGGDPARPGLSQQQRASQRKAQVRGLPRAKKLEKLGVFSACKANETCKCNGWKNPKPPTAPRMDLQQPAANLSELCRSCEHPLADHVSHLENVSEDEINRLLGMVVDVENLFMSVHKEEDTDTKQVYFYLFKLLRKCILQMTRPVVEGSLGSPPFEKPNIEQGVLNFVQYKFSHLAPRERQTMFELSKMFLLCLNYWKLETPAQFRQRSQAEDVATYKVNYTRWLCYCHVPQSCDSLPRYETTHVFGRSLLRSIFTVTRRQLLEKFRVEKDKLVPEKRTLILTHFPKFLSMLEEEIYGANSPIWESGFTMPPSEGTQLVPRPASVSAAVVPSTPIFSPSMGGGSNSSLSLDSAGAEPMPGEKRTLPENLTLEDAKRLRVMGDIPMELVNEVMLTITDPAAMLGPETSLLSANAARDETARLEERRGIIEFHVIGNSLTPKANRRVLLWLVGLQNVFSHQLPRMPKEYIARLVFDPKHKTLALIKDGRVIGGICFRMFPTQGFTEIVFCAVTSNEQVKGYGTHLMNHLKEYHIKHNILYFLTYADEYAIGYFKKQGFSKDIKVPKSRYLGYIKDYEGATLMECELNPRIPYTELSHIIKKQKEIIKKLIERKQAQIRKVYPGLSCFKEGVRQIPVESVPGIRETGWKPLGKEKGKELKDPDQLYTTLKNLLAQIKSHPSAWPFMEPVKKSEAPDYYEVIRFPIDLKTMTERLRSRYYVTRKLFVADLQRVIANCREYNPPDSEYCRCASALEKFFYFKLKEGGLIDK
Protocol: FIG. 1. Provided compounds can provide various activities including inhibiting tumor growth in vivo. (A): Provided compounds can inhibit tumor growth in vivo. Nude Balb/c mice were inoculated with NCI-H1048 cells in Matrigel. Tumors were allowed to grow up to about 200 mm^3 and mice were then randomized into two groups. Mice were dosed intraperitoneally (i.p.) once per week with vehicle or 30 mg/kg compound 22. Tumor size was measured every three to four days and mice were sacrificed once vehicle tumors reached 2000 mm^3. Error bar is SEM. Dosing started at day 17 post tumor inoculation. (B): Provided technologies can reduce KAT2A and KAT2B levels and histone acetylation levels. […] Vehicle is DMSO. […] Cell count data relative to DMSO control after 8 days of treatment with compound 22 are presented as examples to confirm inhibition. GI50=6 nM. (D): Provided technologies can inhibit tumor growth in vivo. Nude balb/c mice inoculated with H1048 tumors were dosed intraperitoneally once per week (qw i.p.) with vehicle (HbCD) or compound 22. Average tumor volumes+/−SEM from 6 mice are represented. […] See also (A). […] Certain body weights relative to starting weight are presented as examples to confirm tolerability and safety. (F): Provided technologies can reduce KAT2A and KAT2B levels and histone acetylation levels in tumor in vivo. […]

NCI-H1876 cells = experiment: Cell growth inhibition, SCLC cell line NCI-H1876 (cell count, day 10); type: cell-based; conditions: 240 h; NCI-H1876, day 10, cell count
Description: Among other things, provided technologies are useful for treating various diseases, disorders, or conditions. For example, in some embodiments, provided technologies are useful for treating cancer as confirmed in the present Example. […] In some embodiments, provided technologies can inhibit cell proliferation. In some embodiments, the present disclosure provides technologies for assessing various technologies, e.g., compounds, compositions, or methods. Among other things, the present Example provides technologies, e.g., cell growth inhibition assay, for assessing various technologies. […] In some embodiments, the following cell growth inhibition methods are utilized to assess provided technologies.
SCLC: SCLC cell lines NCI-H1048 and NCI-H1876 were cultured in DMEM F12 media with 5% FBS, 1% Penicillin/Streptomycin and HITES supplement (Hydrocortisone, Insulin, Transferrin, Estradiol and Sodium Selenite). NCI-H1048 cells were plated at 10,000 cells/well of a 24-well plate and NCI-H1876 cells were plated at 20,000 cells/well of a 96-well plate. Compound and media were replenished every two days out to day 11 and 10 respectively. Cells were then trypsinized and counted using either hemocytometer or an automated Countess cell counter.

[2] = system: NEPC primary patient organoid; experiment: Cell viability of NEPC primary patient organoid, 21 days; type: cell-based; conditions: Homo sapiens, 504 h, cell viability relative to DMSO control after 21 days, FIG. 3 (E)
Protocol: as §1

KAT2A [3] = biological target: T1, KAT2A; experiment: Western blot of KAT2A level in NEPC primary patient organoid, 72 hours; type: cell-based; set-up: degrader, Western blot; conditions: FIG. 3 (D)
Protocol: as §1

LASCPC-01 cells = experiment: Inhibition of growth in vivo, neuroendocrine prostate cancer (LASCPC-01) cells; conditions: FIG. 3 (see also Example B3)
KAT2A [4] = biological target: T1, KAT2A; experiment: KAT2A degradation, Western Blot (Jess), MOLM-13 cells; type: cell-based; set-up: degrader, Western blot
Method in brief: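 MOLM-13 cells in RPMI 1640/20% FBS were treated with compound for 24 h at 37 °C. RIPA lysates (4 μg) were run on a capillary Western (Jess) with anti-KAT2A antibody and chemiluminescent detection. DC50 comes from percent protein reduction versus DMSO control.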

CN1C[C@H](Nc2cnn(C)c(=O)c2Br)C[C@H](c2ccc(C(=O)N3CCC(CN4CCN(c5ccc6c(c5)CN(C5CCC(=O)NC5=O)C6=O)CC4)CC3)cc2)C1 (stereo partly drawn) [Compound 22, 3-(5-(4-((1-(4-((3R,5R)-5-((5-bromo-1-methyl-6-oxo-1,6-dihydropyridazin-4-yl)amino)-1-methylpiperidin-3-yl)benzoyl)piperidin-4-yl)methyl)piperazin-1-yl)-1-oxoisoindolin-2-yl)piperidine-2,6-dione]
epithelial GSEA (epithelial GSEA): significant upregulation
induction of differentiation (CD86) (CD86 in MOLM-13 cells): induce differentiation (e.g., monocytic differentiation as assessed using CD86)
reduction of KAT2A level (KAT2A [1]): confirm such reduction
GI50 (NCI-H1876 cells): 1 nM
GI50 [2]: 3 nM
reduction of KAT2A level (KAT2A [3]): confirmed such reductions
cell growth in vivo (LASCPC-01 cells): inhibit cell growth in vitro and in vivo
EC90 (KAT2A [4]; 24 h, MOLM-13, KAT2A, read-out: DC90 (the source's name)): 0.6 nM
DC50 (KAT2A [4]; MOLM-13, KAT2A, read-out: DC50): 0.11 nM
KAT2A levels (KAT2A [4]; MOLM-13 cells, FIG. 2): potently reduce KAT2A and KAT2B levels
DC50 (KAT2A [4]; MOLM-13 cells, KAT2A, 24 h, Western Blot, vs DMSO, read-out: KAT2A MOLM-13 DC50): < 1 nM
